# Experimental data taken from PMC5351590, “Cucurbitacin B exerts anti-cancer activities in human multiple myeloma cells in vitro and in vivo by modulating multiple cellular pathways” (Oncotarget, 2016).
# Target: T1, Aurora A (Homo sapiens, UniProt O14965)
# T1 construct: gene AURKA
# T1 sequence (O14965 1-403): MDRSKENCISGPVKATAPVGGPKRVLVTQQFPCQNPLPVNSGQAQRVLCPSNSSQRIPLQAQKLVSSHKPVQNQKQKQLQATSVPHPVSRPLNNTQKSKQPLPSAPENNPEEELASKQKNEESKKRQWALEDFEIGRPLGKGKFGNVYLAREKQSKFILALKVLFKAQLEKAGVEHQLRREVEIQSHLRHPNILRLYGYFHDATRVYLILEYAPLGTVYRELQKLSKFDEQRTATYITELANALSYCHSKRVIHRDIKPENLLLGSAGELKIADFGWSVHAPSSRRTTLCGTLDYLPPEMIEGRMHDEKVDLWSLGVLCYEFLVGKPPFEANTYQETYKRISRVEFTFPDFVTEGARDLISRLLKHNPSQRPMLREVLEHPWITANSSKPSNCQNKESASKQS
# Experiment: radiometric […]-ATP kinase assay with purified kinase (Dundee panel; dose-response)
# Assay type: biochemical
structure (smiles),measurement,value
"CC(=O)OC(C)(C)/C=C/C(=O)[C@](C)(O)[C@H]1[C@H](O)C[C@@]2(C)[C@@H]3CC=C4[C@@H](C[C@H](O)C(=O)C4(C)C)[C@]3(C)C(=O)C[C@]12C [CuB, Cucurbitacin B]",IC50,100 nM
